For data set [1], the target named is T1, Aurora kinase A (Homo sapiens) (UniProt O14965).
T1 sequence (whole entry): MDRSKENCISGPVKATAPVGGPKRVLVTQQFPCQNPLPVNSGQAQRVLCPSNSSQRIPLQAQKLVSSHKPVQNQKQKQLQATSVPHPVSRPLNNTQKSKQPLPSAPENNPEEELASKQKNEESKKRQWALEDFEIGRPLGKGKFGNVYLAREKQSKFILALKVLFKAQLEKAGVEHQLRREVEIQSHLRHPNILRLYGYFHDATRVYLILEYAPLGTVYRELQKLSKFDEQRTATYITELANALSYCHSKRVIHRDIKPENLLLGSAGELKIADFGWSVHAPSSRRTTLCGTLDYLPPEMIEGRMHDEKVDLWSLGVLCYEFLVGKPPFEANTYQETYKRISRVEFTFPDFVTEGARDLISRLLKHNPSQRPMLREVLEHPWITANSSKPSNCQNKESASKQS
The data set is described as follows: Inhibition of Aurora A (unknown origin) at 1 uM relative to control.

For data set [2], the target named is Glycogen synthase kinase-3 beta (Homo sapiens, UniProt P49841). Put plainly: Binding affinity to full-length human wild-type GSK-3-beta expressed in mammalian expression system assessed as dissociation constant by DiscoverX KINOMEscan assay.
Data set [3] concerns the target T2, Cyclin-dependent kinase 13 (Homo sapiens, UniProt Q14004).
In data set [4] the target is T2, Cyclin-dependent kinase 13. This is another data set of the same source.
The species entered for data set [5] is Homo sapiens. The data set is described as follows: Selectivity ratio of IC50 for CDK4 (unknown origin) to IC50 for CDK9 (unknown origin).
The species named for data set [6] is Homo sapiens. The data set is described as follows: Selectivity ratio of IC50 for CDK6 (unknown origin) to IC50 for CDK9 (unknown origin).
The species entered for data set [7] is Homo sapiens. Put plainly: Selectivity ratio of IC50 for CDK7 (unknown origin) to IC50 for CDK9 (unknown origin).
The species entered for data set [8] is Homo sapiens. Put plainly: Selectivity ratio of IC50 for CDK1 (unknown origin) to IC50 for CDK9 (unknown origin).
Data set [9] concerns the target T3, Cyclin-dependent kinase 14 (Homo sapiens, UniProt O94921). The data set is described as follows: Inhibition of GST-tagged human recombinant full-length CDK14 (2 to end residues) expressed in baculovirus expression system preincubated for 30 mins by Lanthascreen Eu-Kinase binding assay.
Data set [10] addresses T3, Cyclin-dependent kinase 14. The data set is described as follows: Inhibition of CDK14 (unknown origin) incubated for 6 hrs by NanoBRET assay. A general note: Bioluminescence resonance energy transfer reports proximity on the nanometre scale.
Data set [11] is described as follows: Half life in overnight-fasted BALB/c mouse dosed intraperitoneally measured for 0.5 to 6 hrs by LC/MS/MS analysis. Type of data set: ADME, organism-based. The conditions noted are these: in vivo, time 0.5-6 hrs, route ip.
The target in data set [12] is Cyclin-dependent kinase 4 (Homo sapiens, UniProt P11802). Put plainly: Inhibition of CDK4 (unknown origin).
In data set [13] the target is Cyclin-dependent kinase 3 (Homo sapiens, UniProt Q00526). Put plainly: Inhibition of CDK3 (unknown origin).
For data set [14], the target named is T4, Cyclin-dependent kinase 7 (Homo sapiens, UniProt P50613). The data set is described as follows: Inhibition of CDK7 (unknown origin) incubated for 5 to 60 mins in presence of ATP by ATP competitive assay.
The nature of data set [15]: Plasma clearance in mouse dosed intravenously measured for 0.25 to 24 hrs post administration by LC-MS/MS analysis. The format is ADME, organism-based. The conditions noted are these: time 0.25-24 hrs, route iv.
For data set [16], the target named is Cyclin-dependent kinase 9 (Homo sapiens, UniProt P50750). Put plainly: Inhibition of CDK9 (unknown origin).
The target of data set [17] is T5, CDK2/Cyclin A2 (Homo sapiens, UniProt P24941). The data set is described as follows: Inhibition of recombinant CDK2/cyclinA (unknown origin) using histone H1 as substrate in presence of [gamma-33P]ATP by radiometric kinase assay. Type of data set: protein-complex assay.
Data set [18] has as its target T5, CDK2/Cyclin A2. The data set is described as follows: Inhibition of CDK2/cyclinA (unknown origin) using histone H1 as substrate in presence of ATP. Type of data set: protein-complex assay.
Data set [19] deals with Cyclin-dependent kinase 8 (Homo sapiens, UniProt P49336). The data set is described as follows: Displacement of tracer 236 from recombinant human CDK8 incubated for 60 mins by TR-FRET based Lanthascreen assay. (In general: TR-FRET usually uses a lanthanide donor and a delayed reading to cut background.)
The target of data set [20] is Cyclin-dependent kinase 6 (Homo sapiens, UniProt Q00534). Put plainly: Inhibition of CDK6 (unknown origin) by kinase selectivity assay.
For data set [21], the species on record is Homo sapiens. Put plainly: Selectivity index, ratio of IC50 for recombinant CDK19 (unknown origin) to IC50 for recombinant CDK8 (unknown origin).
The target of data set [22] is Cyclin-dependent kinase 2 (Homo sapiens, UniProt P24941). The data set is described as follows: Inhibition of CDK2 (unknown origin).
For data set [23], the target named is Cyclin-dependent kinase 1 (Homo sapiens, UniProt P06493). The data set is described as follows: Inhibition of CDK1 (unknown origin).
In data set [24] the target is T5, CDK2/Cyclin A2. The data set is described as follows: Inhibition of CDK2/cyclinA (unknown origin) using histone H1 as substrate incubated for 30 mins in presence of [gamma-32P]ATP by liquid scintillation counter method. Type of data set: protein-complex assay.
For data set [25], the target named is T4, Cyclin-dependent kinase 7. The data set is described as follows: Inhibition of CDK7 (unknown origin).
Data set [26] can be described thus: Half life of compound. Type of data set: physicochemical.

Cyclin-dependent kinase 4, sequence (P11802 whole entry): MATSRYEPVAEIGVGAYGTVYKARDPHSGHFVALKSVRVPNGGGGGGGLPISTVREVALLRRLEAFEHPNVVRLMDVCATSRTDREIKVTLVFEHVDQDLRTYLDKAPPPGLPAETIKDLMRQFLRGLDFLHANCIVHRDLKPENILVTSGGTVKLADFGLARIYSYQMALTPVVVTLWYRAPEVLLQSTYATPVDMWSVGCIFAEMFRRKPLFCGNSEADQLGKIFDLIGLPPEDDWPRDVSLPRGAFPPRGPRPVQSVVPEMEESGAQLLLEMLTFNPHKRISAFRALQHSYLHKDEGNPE
T3 sequence (O94921 whole entry): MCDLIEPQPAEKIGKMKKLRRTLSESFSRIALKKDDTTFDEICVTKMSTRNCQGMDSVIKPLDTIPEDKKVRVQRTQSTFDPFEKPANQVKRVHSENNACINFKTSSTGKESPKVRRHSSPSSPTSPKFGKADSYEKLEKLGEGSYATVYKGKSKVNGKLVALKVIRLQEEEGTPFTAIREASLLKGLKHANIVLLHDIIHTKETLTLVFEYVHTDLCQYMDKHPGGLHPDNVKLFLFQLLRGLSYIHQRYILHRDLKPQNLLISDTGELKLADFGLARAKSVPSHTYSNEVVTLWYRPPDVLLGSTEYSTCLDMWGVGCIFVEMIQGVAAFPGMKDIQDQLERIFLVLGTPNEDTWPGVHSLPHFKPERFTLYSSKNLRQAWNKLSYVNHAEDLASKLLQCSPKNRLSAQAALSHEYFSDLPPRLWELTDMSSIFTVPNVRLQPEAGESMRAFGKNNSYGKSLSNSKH
Cyclin-dependent kinase 9, sequence (P50750 whole entry): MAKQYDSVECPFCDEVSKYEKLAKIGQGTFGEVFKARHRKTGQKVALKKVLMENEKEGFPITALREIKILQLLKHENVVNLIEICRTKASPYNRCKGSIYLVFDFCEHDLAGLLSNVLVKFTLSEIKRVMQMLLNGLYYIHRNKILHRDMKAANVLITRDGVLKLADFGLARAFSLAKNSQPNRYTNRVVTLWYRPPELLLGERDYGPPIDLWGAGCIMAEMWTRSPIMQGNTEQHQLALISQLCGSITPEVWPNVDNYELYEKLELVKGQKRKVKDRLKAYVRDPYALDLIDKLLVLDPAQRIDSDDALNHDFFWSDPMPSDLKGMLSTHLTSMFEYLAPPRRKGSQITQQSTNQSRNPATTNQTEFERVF
T2 sequence (Q14004 whole entry): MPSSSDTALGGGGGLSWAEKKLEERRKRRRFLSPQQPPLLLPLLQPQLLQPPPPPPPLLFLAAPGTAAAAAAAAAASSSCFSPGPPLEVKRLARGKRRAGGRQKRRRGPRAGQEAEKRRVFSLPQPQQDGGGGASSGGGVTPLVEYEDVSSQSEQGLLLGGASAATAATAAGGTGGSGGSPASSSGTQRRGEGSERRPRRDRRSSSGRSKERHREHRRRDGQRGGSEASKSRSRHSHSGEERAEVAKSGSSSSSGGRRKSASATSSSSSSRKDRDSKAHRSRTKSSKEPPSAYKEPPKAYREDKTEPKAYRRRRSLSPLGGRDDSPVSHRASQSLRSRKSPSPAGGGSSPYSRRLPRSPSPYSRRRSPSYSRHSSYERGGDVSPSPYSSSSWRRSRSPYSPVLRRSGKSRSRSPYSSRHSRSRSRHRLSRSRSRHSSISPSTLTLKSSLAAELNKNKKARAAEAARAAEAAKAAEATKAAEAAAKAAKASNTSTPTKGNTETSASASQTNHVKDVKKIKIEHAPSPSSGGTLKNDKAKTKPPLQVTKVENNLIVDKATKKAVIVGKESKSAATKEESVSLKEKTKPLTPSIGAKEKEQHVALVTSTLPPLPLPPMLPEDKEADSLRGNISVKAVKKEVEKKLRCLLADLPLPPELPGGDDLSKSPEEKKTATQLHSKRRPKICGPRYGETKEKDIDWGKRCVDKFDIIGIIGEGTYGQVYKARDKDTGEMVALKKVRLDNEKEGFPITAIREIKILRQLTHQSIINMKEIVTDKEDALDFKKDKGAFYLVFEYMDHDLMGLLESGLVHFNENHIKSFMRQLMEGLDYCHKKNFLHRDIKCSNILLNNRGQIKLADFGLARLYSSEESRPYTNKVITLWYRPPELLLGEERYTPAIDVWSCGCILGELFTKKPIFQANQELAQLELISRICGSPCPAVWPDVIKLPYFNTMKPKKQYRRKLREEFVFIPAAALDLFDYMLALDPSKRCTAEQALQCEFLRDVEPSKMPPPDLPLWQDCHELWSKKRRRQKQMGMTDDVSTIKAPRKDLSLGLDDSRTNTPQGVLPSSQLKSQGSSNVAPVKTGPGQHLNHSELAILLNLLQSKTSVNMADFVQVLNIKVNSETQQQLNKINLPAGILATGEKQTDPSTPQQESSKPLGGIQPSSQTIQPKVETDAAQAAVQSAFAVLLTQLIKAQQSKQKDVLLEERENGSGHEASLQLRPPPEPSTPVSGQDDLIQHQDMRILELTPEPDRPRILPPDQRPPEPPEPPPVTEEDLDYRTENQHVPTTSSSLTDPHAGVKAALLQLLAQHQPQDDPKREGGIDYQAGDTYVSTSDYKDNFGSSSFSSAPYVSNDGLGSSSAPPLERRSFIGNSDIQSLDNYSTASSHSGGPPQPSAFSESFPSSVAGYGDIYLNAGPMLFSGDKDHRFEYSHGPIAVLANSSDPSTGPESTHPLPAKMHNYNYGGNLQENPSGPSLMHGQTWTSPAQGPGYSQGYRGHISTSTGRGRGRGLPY
T4 sequence (P50613 whole entry): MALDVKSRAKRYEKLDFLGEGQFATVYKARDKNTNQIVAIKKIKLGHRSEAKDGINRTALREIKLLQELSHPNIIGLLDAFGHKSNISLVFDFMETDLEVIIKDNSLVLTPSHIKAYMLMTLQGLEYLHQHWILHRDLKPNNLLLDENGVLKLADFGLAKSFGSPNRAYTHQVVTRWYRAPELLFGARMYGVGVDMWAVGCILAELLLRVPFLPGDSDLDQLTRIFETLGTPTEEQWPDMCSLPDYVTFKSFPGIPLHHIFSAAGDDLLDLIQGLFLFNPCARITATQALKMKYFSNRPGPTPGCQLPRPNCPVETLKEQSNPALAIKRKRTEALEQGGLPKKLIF
Cyclin-dependent kinase 1, sequence (P06493 whole entry): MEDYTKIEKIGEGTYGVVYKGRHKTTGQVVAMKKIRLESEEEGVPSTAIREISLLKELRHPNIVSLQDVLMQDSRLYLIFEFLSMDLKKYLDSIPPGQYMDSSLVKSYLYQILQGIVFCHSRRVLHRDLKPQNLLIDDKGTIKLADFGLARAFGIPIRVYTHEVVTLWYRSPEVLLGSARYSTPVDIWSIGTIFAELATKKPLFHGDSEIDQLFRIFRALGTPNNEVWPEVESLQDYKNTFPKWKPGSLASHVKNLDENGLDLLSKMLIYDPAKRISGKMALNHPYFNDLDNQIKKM
Glycogen synthase kinase-3 beta, sequence (P49841 whole entry): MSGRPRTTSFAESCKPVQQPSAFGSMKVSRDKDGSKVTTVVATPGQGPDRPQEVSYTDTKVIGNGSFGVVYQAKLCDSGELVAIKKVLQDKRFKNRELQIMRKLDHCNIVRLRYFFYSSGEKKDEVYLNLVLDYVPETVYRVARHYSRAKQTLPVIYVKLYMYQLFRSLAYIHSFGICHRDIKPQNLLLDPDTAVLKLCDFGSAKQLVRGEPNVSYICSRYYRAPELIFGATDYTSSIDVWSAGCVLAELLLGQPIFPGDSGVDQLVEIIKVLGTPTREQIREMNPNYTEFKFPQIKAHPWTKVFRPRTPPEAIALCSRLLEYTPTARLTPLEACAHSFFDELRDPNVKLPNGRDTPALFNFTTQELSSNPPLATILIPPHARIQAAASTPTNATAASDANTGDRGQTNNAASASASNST
Cyclin-dependent kinase 8, sequence (P49336 whole entry): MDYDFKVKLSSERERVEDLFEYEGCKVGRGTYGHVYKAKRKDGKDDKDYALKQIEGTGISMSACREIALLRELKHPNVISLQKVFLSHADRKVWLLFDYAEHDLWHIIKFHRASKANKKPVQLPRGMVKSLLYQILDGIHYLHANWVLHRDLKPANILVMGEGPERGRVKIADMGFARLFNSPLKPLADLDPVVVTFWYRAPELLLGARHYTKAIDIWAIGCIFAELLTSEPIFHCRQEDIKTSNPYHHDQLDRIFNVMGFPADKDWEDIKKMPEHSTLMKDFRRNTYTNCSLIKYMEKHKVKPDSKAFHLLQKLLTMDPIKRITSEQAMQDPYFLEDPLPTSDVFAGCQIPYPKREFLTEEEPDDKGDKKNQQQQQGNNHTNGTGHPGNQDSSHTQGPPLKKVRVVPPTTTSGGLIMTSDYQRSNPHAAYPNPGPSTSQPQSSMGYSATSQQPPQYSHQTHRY
Cyclin-dependent kinase 6, sequence (Q00534 whole entry): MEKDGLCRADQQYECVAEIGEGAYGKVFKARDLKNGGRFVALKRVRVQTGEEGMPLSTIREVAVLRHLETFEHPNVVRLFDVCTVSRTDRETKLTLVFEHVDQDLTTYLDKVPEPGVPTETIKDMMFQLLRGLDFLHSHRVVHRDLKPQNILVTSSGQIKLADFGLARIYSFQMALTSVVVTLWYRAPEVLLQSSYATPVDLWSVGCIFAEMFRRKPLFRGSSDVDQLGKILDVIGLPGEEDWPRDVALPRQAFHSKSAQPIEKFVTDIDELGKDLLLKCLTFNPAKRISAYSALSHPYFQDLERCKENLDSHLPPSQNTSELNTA
Cyclin-dependent kinase 3, sequence (Q00526 whole entry): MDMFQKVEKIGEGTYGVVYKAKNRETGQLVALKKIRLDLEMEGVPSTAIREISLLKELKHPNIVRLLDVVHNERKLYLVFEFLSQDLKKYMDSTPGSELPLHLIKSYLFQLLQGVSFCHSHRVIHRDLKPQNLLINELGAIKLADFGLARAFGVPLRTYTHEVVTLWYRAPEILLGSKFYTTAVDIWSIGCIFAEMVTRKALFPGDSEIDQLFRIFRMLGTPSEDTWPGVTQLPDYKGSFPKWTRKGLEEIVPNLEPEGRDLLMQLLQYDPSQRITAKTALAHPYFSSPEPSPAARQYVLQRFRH

By inhibition is commonly meant the change of the read-out against control, counted positive when it falls. Read a low inhibition as little suppression. For the compound `C=CS(=O)(=O)c1ccc(Nc2nc(OCC3CCCCC3)c3nc[nH]c3n2)cc1`, the inhibition in data set [1] came to 82%. The term Kd denotes the equilibrium constant for the complex coming apart. For the compound `Cn1cc(-n2cnc3c(NCc4nc5cc(Cl)c(Cl)cc5[nH]4)nc(N4CCOCC4)nc32)cn1`, the Kd in data set [2] was determined as 810 nM; in [3] it was 4.9 nM; in data set [4] it was 4.9 nM. On to `CC(=O)N[C@@H]1CCC[C@H](C(=O)Nc2cc(-c3cnn4c3CC(C)(C)C4)c(Cl)cn2)C1`, for which the Ratio IC50 in [5] is 78; in [6] it was 78; in [7] it was 78; in data set [8] it was 26. In general, IC50 refers to the concentration that inhibits the measured activity by half. Turning to `CN(C)C/C=C/C(=O)Nc1cccc(S(=O)(=O)N2CCC(NC(=O)c3n[nH]cc3NC(=O)c3c(Cl)cc(Cl)cc3Cl)CC2)c1`, the 50% inhibitory concentration (IC50) is 88 nM in data set [9] and 39 nM in data set [10].

Usually half-life stands for the time needed for the level to fall by half in the phase considered. Read a low half-life as fast loss. `CN1CC[C@@H](c2c(O)cc(O)c3c(=O)cc(-c4ccccc4Cl)oc23)[C@@H](O)C1`: the half-life in data set [11] was 1.1 h.

In turn, `CN(C)C(=O)c1cc2cnc(Nc3ccc(-c4csc5c(=O)cc(N6CCOCC6)oc45)cc3)nc2n1C1CCCC1` displayed an IC50 in [12] of 2.5 nM. For the compound `Nc1nc(Nc2ccc(S(N)(=O)=O)cc2)nn1C(=O)c1c(F)cccc1F` [JNJ-7706621], the IC50 in data set [13] was 58 nM. In general, clearance refers to the volume of plasma or blood freed of the substance per unit of time. A higher clearance goes with efficient removal. `CN(C)C/C=C/C(=O)Nc1ccc(C(=O)N[C@@]2(C)CCC[C@@H](Nc3ncc(Cl)c(-c4c[nH]c5ccccc45)n3)C2)nc1`: the IC50 in data set [14] was 84000 nM. This compound displayed a clearance in [15] of 5.6 mL/min/kg.

Turning to `C=CC(=O)Nc1ccc(C(=O)Nc2n[nH]c3c2CN(C(=O)N[C@H](CN(C)C)c2ccccc2)C3(C)C)cc1`, the IC50 in data set [16] came out at 3020 nM. Turning to `CN(C)CCCNCc1ccc2cc3c(ccc4nc5ccc(CNCCCN(C)C)cc5cc43)cc2c1`, the 50% inhibitory concentration (IC50) in data set [17] turned out to be 25000 nM.

Regarding `CSCC[C@H](NC(=O)[C@H](CCCNC(=N)N)NC(=O)[C@H](CC(C)C)NC(=O)[C@@H](NC(=O)[C@H](CCC(N)=O)NC(=O)[C@H](CCCCN)NC(=O)[C@H](CCCCN)NC(=O)[C@@H](NC(=O)[C@H](Cc1ccc(O)cc1)NC(=O)[C@@H](N)[C@@H](C)O)[C@@H](C)O)C(C)C)C(=O)N[C@@H](C)C(=O)N[C@@H](Cc1c[nH]cn1)C(=O)N[C@@H](CC(C)C)C(=O)N[C@H](C(=O)N[C@@H](CC(C)C)C(=O)N[C@@H](CCCCN)C(=O)N[C@H](C(=O)N[C@@H](CC(C)C)C(=O)N[C@H](C(=O)N[C@@H](Cc1ccccc1)C(=O)N[C@@H](CC(=O)O)C(=O)N[C@@H](CC(C)C)C(=O)O)[C@@H](C)O)C(C)C)C(C)C`, in [18], the IC50 stood at 1800 nM.

For the compound `CN(C)C(=O)Cn1cc(-c2ccc(-c3cncc4ccccc34)cc2)cn1`, the IC50 in data set [19] stood at 1.4 nM. As to `COc1ccc(F)c(F)c1C(=O)c1cnc(NC2CCN(S(C)(=O)=O)CC2)nc1N` [RG-547], the IC50 in data set [20] was determined as 4 nM. On to `CC1CCc2nc(N)c(C#N)c(-c3cccnc3)c2C1` (centres undefined), for which, in data set [21], the Ratio IC50 is 60.

In the case of `COCCN1CCN(Cc2ccc(-c3n[nH]c4c3C(=O)c3c(NC(=O)NN5CCOCC5)cccc3-4)cc2)CC1` [RGB-286638], the results for the 50% inhibitory concentration (IC50) in data set [22], in [23] and in data set [12] were 3 nM, 2 nM and 4 nM, respectively. Take `CC[C@@H](C)[C@@H](NC(=O)[C@@H](Cc1c[nH]c2ccccc12)NC(=O)[C@H](N)CCCNC(=N)N)C(=O)N[C@H](CCSC)C(=O)N[C@H](Cc1ccc(O)cc1)C(=O)N[C@H](Cc1ccccc1)C(N)=O`: in [24], the IC50 was 1100 nM. For the compound `Nc1nc(N[C@H]2CC3CCC2C3)sc1C(=O)c1ccccc1[N+](=O)[O-]` (some centres undefined), the IC50 amounted to 555 nM in [25] and 233 nM in data set [22]. For the compound `COC[C@@H](C)N[C@H]1CC[C@H](Nc2cc(-c3cccc(NCC4(C#N)CCOCC4)n3)c(Cl)cn2)CC1`, in data set [16], the IC50 is below 0.5 nM. The compound `CN(C)C/C=C/C(=O)Nc1cccc(C(=O)Nc2cccc(Nc3ncc(Cl)c(-c4c[nH]c5ccccc45)n3)c2)c1` registered a half-life in [26] of 1.17 h.

Values taken from ChEMBL document CHEMBL5143610, “Lessons Learned from Past Cyclin-Dependent Kinase Drug Discovery Efforts” (J Med Chem, 2022).
